Measured values as given in PMC7363588, “Mapping of the FGF14:Nav1.6 complex interface reveals FLPK as a functionally active peptide modulating excitability” (Physiological Reports, 2020).
“Also recorded” adds a separate entry of the source. Peptide text beside a SMILES is read from it.

Tested on: medium spiny neurons (MSNs) in the nucleus accumbens
Experiment: Brain slice patch-clamp: intrinsic excitability and passive properties of MSNs
Type: cell-based, male C57BL6/J mice
Protocol: Brain slices from male C57BL6/J mice aged 28–45 days were prepared to contain the nucleus accumbens (NAc). Mice were anesthetized with Isoflurane (Baxter, Deerfield, IL) and brains extracted following decapitation. Brains were sliced with a vibratome (Leica Microsystems, Wetzlar, Germany) to achieve 300 μm coronal slices. Brains sliced in extracellular salts; consisting of the following (mM): Tris‐HCl 72, Tris‐Base18, NaH2PO4 1.2, KCl 2.5, HEPES 20, sucrose 20, NaHCO3 25, glucose 25, MgSO4 10, Na‐pyruvate 3, Na‐ascorbate 5 and CaCl2 0.5 (Sigma‐Aldrich, St. Louis, MO); 300–310 mOsm, pH 7.4 and was continuously oxygenated (mixture of 95%/5% O2/CO2). Slices were then placed in a 32°C recovery chamber with freshly prepared tris‐based aCSF for 15 min before transfer to a 32°C chamber of standard aCSF consisting of the following extracellular salts (mM): NaCl 123.9, KCl 3.1, glucose 10, MgCl2 1, CaCl2 2, NaHCO3 24, and NaH2PO4 1.16 (Sigma‐Aldrich, St. Louis, MO); 300–310 mOsm, pH 7.4 and continuously oxygenated (mixture of 95%/5% O2/CO2). Finally, slices were equilibrated at RT for at least 45 min. DMSO and/or FLPK were added to standard aCSF to achieve a bath concentration of 0.1% DMSO and 50 μM FLPK. Brain slices were incubated in a separate chamber with standard aCSF containing 0.1% DMSO (control) or 50 μM FLPK and continuously oxygenated for 30 min. Somatic recordings from NAc visually identified medium spiny neurons (MSNs) in standard aCSF were carried out at 31°C using borosilicate glass pipettes (resistance of 3–5 MΩ) filled with an internal solution containing (mM): D‐gluconate (potassium salt) 145, MgCl2 2, EGTA 0.1, Na2ATP 2, and HEPES 10 (pH 7.2; 290 mOsm). Either an Axopatch 200B or a Multiclamp 700B amplifier was used to perform whole‐cell patch clamp experiments. For the Axopatch 200B, a digidata 1,200 analog–digital interface and pClamp 9 software with filtering at 20 kHz and digitizing at 5 kHz were used for data acquisition and stimulation. For the Multiclamp 700B, a digidata 1,350 analog‐digital interface and pClamp 10.9 with filtering at 20 kHz and digitizing at 5 kHz were used for data acquisition and stimulation. First a giga‐seal was formed and the cell membrane ruptured after which MSNs were held in […] for 1 min to measure resting membrane potential. Next, MSNs were held in current clamp mode to assess cell activity. Evoked action potentials with a range of current injections from 10 pA to 220 pA with 800 ms every 10 pA were measured and number of action potentials, instantaneous frequency, and other electrical parameters were determined. Average instantaneous firing frequency (IFF) is defined as the average of all reciprocal interspike intervals (ms) at a particular current step. Cells with a current threshold above 180 pA, a resting membrane potential above −60 mV, and an input resistance outside the range of 70–250 MΩ were excluded. To isolate persistent Na^+ current (I NaP) in whole‐cell voltage‐clamp recordings, we used a modified aCSF containing 20 mM tetraethylammonium chloride (TEA) and 0.3 mM CdCl2. The voltage‐dependence of I NaP was determined using standard protocols (Yue, Remy, Su, Beck, & Yaari, 2005). Membrane capacitances and Rseries were compensated electronically. Series resistances (Rs) before compensation were in the range of 5–20 MΩ and were routinely corrected by 75%–85%. Data obtained from a given cell were rejected if Rs was larger than 20 MΩ or changed by > 20% during the course of the experiment. Membrane capacitance was calculated using the equation: capacitance = membrane time constant/input resistance (Meitzen, Weaver, Brenowitz, & Perkel, 2009). The membrane input resistance was measured by a series of 600 ms hyperpolarizing current steps from −50 to 0 pA, step 10 pA with 1 s interval. The slope of the current‐voltage curve was designated as the membrane input resistance. […]

With `CC(=O)N[C@@H](Cc1ccccc1)C(=O)N[C@@H](CC(C)C)C(=O)N1CCC[C@H]1C(=O)N[C@@H](CCCCN)C(N)=O` [FLPK] (Ac-FLPK-NH2) the “effect on MSN firing and passive properties” value (50 µM FLPK vs 0.1% DMSO) was “significantly increased the number of evoked action potentials and the instantaneous firing frequency; also recorded: no changes in several other electrophysiological parameters including membrane potential and input resistance; also recorded: increase in the total number of action potentials as well as instantaneous firing frequency”, the “Tau (τ), membrane time constant” value (50 µM FLPK, 30 min incubation, mean ± SEM, n = 5–12, DMSO 16.1 ± 2.1, p = .157) was 11.9 ± 1.6 ms and the Cm (50 µM FLPK, 30 min incubation, mean ± SEM, n = 5–12, DMSO 90.2 ± 14.5, p = .521) was 80.1 ± 7.6 pF. The Ithr (50 µM FLPK, 30 min incubation, mean ± SEM, n = 5–12, DMSO 110 ± 14.2, p = .221) was 78 ± 18.3 pA, the Rin (50 µM FLPK, 30 min incubation, mean ± SEM, n = 5–12, DMSO 119.1 ± 10.3, p = .088) was 147.2 ± 11.3 MΩ and the Vthr (50 µM FLPK, 30 min incubation, mean ± SEM, n = 5–12, DMSO −40.5 ± 1.1, p = .422) was −38.7 ± 2.2 mV. The RMP (50 µM FLPK, 30 min incubation, mean ± SEM, n = 5–12, DMSO −75.3 ± 1.5, p = .125) was −79.7 ± 2.6 mV, the “number of evoked action potentials” value (50 µM FLPK, current step 180 pA, n = 7, DMSO 14.9 ± 2.3, n = 14, p < .016) was 23.7 ± 1.2 and the instantaneous firing frequency (50 µM FLPK, current step 180 pA, n = 7, DMSO 19.7 ± 2.6 Hz, n = 14, p < .0395) was 28.6 ± 2.1 Hz.
